Assay results published in the supplement of paper PMC11061612.

Tests used:
[1] = test system: OVTOKO (Ovarian Carcinoma); assay: combination Emax (second highest fraction inhibited in the dose matrix, 72 h); higher = more inhibition; extreme values may be limits of the assay
Procedure, shortened: (§1)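 Cell lines grown in DMEM/F12 or RPMI with 10% FBS were plated in 1536-well plates and held 24 hours at 37°C, 5% CO2 before 72 hours of exposure to two-drug dose matrices, with DMSO typically at 0.2%. CellTiter-Glo 2.0 luminescence gave viability, which was converted to inhibition. Vehicle wells were set to 0 and blank wells to 1. Combination Emax is the second-highest inhibition in the matrix, and Bliss excess is the observed combination effect minus the expected EA + EB − EA·EB, where EA and EB are the single-agent effects.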

[2] = test system: NCI-H1155 (Non-Small Cell Lung Carcinoma); assay: as above
Procedure, shortened: as §1

[3] = test system: Caov-3 (Ovarian Carcinoma); assay: Bliss excess, mean over the matrix (fraction); higher = more synergy
Procedure, shortened: as §1

[4] = test system: HTC-C3 (Thyroid Gland Carcinoma); assay: as above
Procedure, shortened: as §1

[5] = test system: PC-14 (Lung Adenocarcinoma); assay: as above
Procedure, shortened: as §1

RT4 (Bladder Carcinoma) = assay: as above
Procedure, shortened: as §1

[6] = test system: NCI-H1563 (Lung Adenocarcinoma); assay: as above
Procedure, shortened: as §1

[7] = test system: COLO-684 (Endometrial Carcinoma); assay: as above
Procedure, shortened: as §1

KYM-1 (Rhabdomyosarcoma) = assay: as above
Procedure, shortened: as §1

[8] = test system: OVTOKO (Ovarian Carcinoma); assay: as above
Procedure, shortened: as §1

[9] = test system: RL95-2 (Endometrial Carcinoma); assay: as above
Procedure, shortened: as §1

[10] = test system: Becker (Low Grade Glioma); assay: as above
Procedure, shortened: as §1

[11] = test system: SJRH30 (Rhabdomyosarcoma); assay: as above
Procedure, shortened: as §1

[12] = test system: BALL-1 (B-Lymphoblastic Leukemia); assay: as above
Procedure, shortened: as §1

[13] = test system: NCI-H810 (Non-Small Cell Lung Carcinoma); assay: as above
Procedure, shortened: as §1

[14] = test system: LOUCY (T-Lymphoblastic Leukemia); assay: as above
Procedure, shortened: as §1

[15] = test system: RMG-I (Ovarian Carcinoma); assay: as above
Procedure, shortened: as §1

[16] = test system: AN3-CA (Endometrial Carcinoma); assay: as above
Procedure, shortened: as §1

[17] = test system: NCI-H196 (Small Cell Lung Carcinoma); assay: as above
Procedure, shortened: as §1

[18] = test system: SK-MM-2 (Plasma Cell Myeloma); assay: as above
Procedure, shortened: as §1
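Throughout, for Bliss excess, mean over the matrix: after 72 h of two-drug dosing.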

Structure (SMILES)	combination Emax [1]	combination Emax [2]	Bliss excess [3]	Bliss excess [4]	Bliss excess [5]	Bliss excess (RT4 (Bladder Carcinoma))	Bliss excess [6]	Bliss excess [7]	Bliss excess (KYM-1 (Rhabdomyosarcoma))	Bliss excess [8]	Bliss excess [9]	Bliss excess [10]	Bliss excess [11]	Bliss excess [12]	Bliss excess [13]	Bliss excess [14]	Bliss excess [15]	Bliss excess [16]	Bliss excess [17]	Bliss excess [18]
CC1(C)CCC(CN2CCN(c3ccc(C(=O)NS(=O)(=O)c4ccc(NCC5CCOCC5)c([N+](=O)[O-])c4)c(Oc4cnc5[nH]ccc5c4)c3)CC2)=C(c2ccc(Cl)cc2)C1 [Venetoclax] + C1CN(CCC1(C(=O)N[C@@H](CCO)C2=CC=C(C=C2)Cl)N)C3=NC=NC4=C3C=CN4 [Capivasertib] (first compound max 1 µM, 7x7, partner max 3 µM)	0.462	0.289	-0.0458	-0.0418	-0.038	-0.0469	-0.0411	-0.0821	-0.0269	-0.0546	-0.0102	0.0046	-0.0008	0.0213	-0.0663	0.104	-0.0823	0.0482	-0.0377	-0.0449
CC1(C)CCC(CN2CCN(c3ccc(C(=O)NS(=O)(=O)c4ccc(NCC5CCOCC5)c([N+](=O)[O-])c4)c(Oc4cnc5[nH]ccc5c4)c3)CC2)=C(c2ccc(Cl)cc2)C1 [Venetoclax] + C[C@@H]1COCCN1C2=NC(=NC(=C2)C3(CC3)[S@](=N)(=O)C)C4=C5C=CNC5=NC=C4 [AZD6738] (first compound max 1 µM, 7x7, partner max 10 µM)	0.566	0.829	-0.0574	-0.0354	-0.021	-0.0281	0.0131	0.005	-0.0119	-0.0395	-0.0361	-0.0388	-0.0182	0.0053	-0.0356	-0.0462	-0.0178	-0.0068	0.0092	0.0217
COc1cccc2c1C(=O)c1c(O)c3c(c(O)c1C2=O)C[C@@](O)(C(=O)CO)C[C@@H]3O[C@H]1C[C@H](N)[C@H](O)[C@H](C)O1 [Doxorubicin] + Cc1cc2ncnn2cc1Nc1ncc2c(n1)n(C1CCOCC1)c(=O)n2C [AZD7648] (first compound max 1 µM, 7x7, partner max 10 µM)	0.216	0.916	0.024	0.0263	0.0728	0.039	0.0572	-0.003	0.0837	-0.0578	-0.0064	0.0406	0.122	0.117	0.0213	0.0893	-0.0445	-0.0534	-0.0383	-0.0137
